These results are taken from patent publication US20220007646A1, “METHOD TO CONTROL A PHYTHOPATOGENIC FUNGI SELECTED FROM UNCINULA NECATOR, PLASMOPARA VITICOLA AND GLOEOSPORIUM AMPELOPHAGUM IN GRAPES BY COMPOSITIONS COMPRISING MEFENTRIFLUCONAZOLE” (BASF AGRO B.V., priority 2018, published 2022).

One experiment deals with Uncinula necator. The experiment in a line: Green house: control of powdery mildew on grape caused by Uncinula necator (UNCINE P7). It counts as in vivo. As to conditions: grape plants sprayed, inoculated 7 days later, assessed after 22 days. The procedure: Control of Powdery Mildew on Grape Caused by Uncinula necator ([…]7) Grape cuttings were grown in pots to the 4 to 5 leaf stage. These plants were sprayed to run-off with a spray solution, containing the concentration of active ingredient or their mixture mentioned in the table below. Seven days later the treated plants were inoculated with spores of Uncinula necator by shaking heavily infested stock plants over the treated pots. After cultivation in the greenhouse for 22 days at 21-23° C. and a relative humidity between 40 to 70% the extent of fungal attack on the leaves was visually assessed as % diseased leaf area. The disease ratings were converted into efficacies. […] The expected efficacies of active compound mixtures were determined using Colby's formula [R. S. Colby, “Calculating synergistic and antagonistic responses of herbicide combinations”, Weeds 15, 20-22 (1967)] and compared with the observed efficacies.

The test system of a further experiment is Plasmopara viticola. The experiment in a line: Green house: fungicidal control of grape downy mildew caused by Plasmopara viticola (PLASVI P4). The format is in vivo. Conditions: grape plants sprayed, inoculated after four days. The procedure: Fungicidal Control of Grape Downy Mildew Caused by Plasmopara viticola […]4) Grape cuttings were grown in pots to the 4 to 5 leaf stage. These plants were sprayed to run-off with a spray solution, containing the concentration of active ingredient or their mixture mentioned in the table below. The plants were allowed to air-dry and cultivated in a greenhouse for four days. Then they were inoculated with an aqueous spore suspension of Plasmopara viticola by spraying it at the lower leaf-side. Then the trial plants were immediately transferred for 24 h to a humid chamber with 22-24° C. and a and a saturated relative humidity. For a period of 5 days, cultivation followed in a greenhouse at 20-25° C. and a relative humidity about 50-80%. To stimulate the outbreak of the disease symptoms, the plants were transferred to a humid chamber again for 24 hours. Then the extent of fungal attack on the lower leaf surface was visually assessed as % diseased leaf area. The disease ratings were converted into efficacies. […] The expected efficacies of active compound mixtures were determined using Colby's formula [R. S. Colby, “Calculating synergistic and antagonistic responses of herbicide combinations”, Weeds 15, 20-22 (1967)] and compared with the observed efficacies.

The mark [1] stands for this setting: application rate 5 g/ha, 0 = as untreated, 100 = not infected.

On to `CC(O)(Cn1cncn1)c1ccc(Oc2ccc(Cl)cc2)cc1C(F)(F)F` (centres unmarked) [I, mefentrifluconazole], for which the Observed efficacy in the experiment with Uncinula necator (setting [1]) is listed as 72; with Plasmopara viticola (application rate 1 g/ha), 2; with Plasmopara viticola (setting [1]) it was 1.

As for `Cn1cc(C(=O)Nc2ccccc2-c2cc(F)c(F)c(F)c2)c(C(F)F)n1` [II-6, fluxapyroxad], the Observed efficacy in the experiment on Uncinula necator (application rate 0.5 g/ha) came to 52. With `Cc1cc(C(F)(F)F)nn1CC(=O)N1CCC(c2nc(C3=NOC(c4c(F)cccc4F)C3)cs2)CC1` (centres unmarked) [II-9, oxathiapiprolin], the Observed efficacy with Plasmopara viticola (application rate 0.1 g/ha) is listed as 18.
